Results: ChEMBL document CHEMBL3232724, “Decreasing acidity in a series of aldose reductase inhibitors: 2-Fluoro-4-(1H-pyrrol-1-yl)phenol as a scaffold for improved membrane permeation” (Bioorg Med Chem, 2014)
pIC50: −log10 of the molar value.

Legend:
Jejunum [1] = conditions: rat
[2] = biological target: Aldo-keto reductase family 1 member A1 (Rattus norvegicus, UniProt P51635); assay: Inhibition of Fischer-344 rat kidney ALR1 using D-glucuronate as substrate by spectrophotometry
Rattus norvegicus = organism: Rattus norvegicus; assay: Selectivity index, ratio of IC50 for Fischer-344 rat kidney ALR1 to IC50 for Fischer-344 rat lens ALR2; type: tissue-based; conditions: Lens of camera-type eye
[3] = biological target: Aldo-keto reductase family 1 member B1 (Rattus norvegicus, UniProt P07943); assay: Inhibition of Fischer-344 rat lens ALR2 using D, L-glyceraldehyde as substrate by spectrophotometry; type: tissue-based, Lens of camera-type eye
[4] = biological target: Aldo-keto reductase family 1 member B1 (Rattus norvegicus) (UniProt P07943); assay: Inhibition of Fischer-344 rat lens ALR2 using D, L-glyceraldehyde as substrate at 100 uM by spectrophotometry; type: tissue-based; conditions: Lens of camera-type eye
Jejunum [5] = assay: Apparent permeability coefficient in Sprague-Dawley rat jejunum at 10 uM; type: ADME, tissue-based
[6] = Inhibition of glucose-induced sorbitol accumulation in Wistar rat lens at 50 uM after 3 hrs by fluorescence assay (reference value: 755.27 +/- 19.7 nmol/g); type: functional, Lens of camera-type eye
[7] = Octanol-water distribution coefficient, log D of the compound at pH 8.25 by shake flask method; type: physicochemical
[8] = Octanol-water distribution coefficient, log D of the compound at pH 8 by shake flask method; type: physicochemical
[9] = Octanol-water distribution coefficient, log D of the compound at pH 12 by shake flask method; type: physicochemical
[10] = Octanol-water distribution coefficient, log D of the compound at pH 11 by shake flask method; type: physicochemical
[11] = Octanol-water distribution coefficient, log D of the compound at pH 9.2 by shake flask method; type: physicochemical
[12] = Octanol-water distribution coefficient, log D of the compound at pH 7.8 by shake flask method; type: physicochemical
[13] = Inhibition of glucose-induced sorbitol accumulation in Wistar rat lens at 10 uM after 3 hrs by fluorescence assay (reference value: 755.27 +/- 19.7 nmol/g); type: functional, Lens of camera-type eye
[14] = Octanol-water distribution coefficient, log D of the compound at pH 7.4 by shake flask method; type: physicochemical
[15] = Octanol-water distribution coefficient, log D of the compound at pH 8.5 by shake flask method; type: physicochemical
[16] = Octanol-water distribution coefficient, log D of the compound at pH 7 by shake flask method; type: physicochemical
Jejunum [17] = assay: Apparent permeability coefficient in Sprague-Dawley rat jejunum at 100 uM; type: ADME, tissue-based

Chain of Aldo-keto reductase family 1 member A1 (P51635 whole entry, looked up): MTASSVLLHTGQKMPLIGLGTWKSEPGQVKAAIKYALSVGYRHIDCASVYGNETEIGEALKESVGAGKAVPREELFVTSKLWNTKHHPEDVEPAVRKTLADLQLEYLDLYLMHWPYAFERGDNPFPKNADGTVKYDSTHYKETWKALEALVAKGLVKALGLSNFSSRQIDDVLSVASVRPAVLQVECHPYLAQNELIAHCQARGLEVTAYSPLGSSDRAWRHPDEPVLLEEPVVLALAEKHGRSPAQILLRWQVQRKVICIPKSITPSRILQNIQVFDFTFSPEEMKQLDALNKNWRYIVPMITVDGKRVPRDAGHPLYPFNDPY

| SMILES | pIC50 [2] | pIC50 [3] | inhibition [4] | Ratio IC50 (Rattus norvegicus) | further results |
| --- | --- | --- | --- | --- | --- |
| CC(C)NCC(O)COc1cccc2ccccc12 (configuration not stated) [PROPRANOLOL] |  |  |  |  | Papp (Jejunum [1]): 11.1 ucm/s |
| O=C(c1ccccc1)c1ccn(-c2cccc(/C=N/O)c2O)c1 |  |  | 23.5% |  |  |
| O=C(c1ccccc1)c1ccn(-c2ccc(/C=N/O)c(O)c2)c1 |  |  | 33.7% |  |  |
| O=C(c1ccccc1)c1ccn(-c2ccc(F)c(F)c2)c1 |  |  | 5.81% |  |  |
| O=C1OC2(c3ccc(O)cc3Oc3cc(O)ccc32)c2ccccc21 [FLUORESCEIN] |  |  |  |  | Papp (Jejunum [5]): 5.2 ucm/s |
| O=C(c1ccccc1)c1ccn(-c2cccc(O)c2)c1 |  |  | 21.5% |  |  |
| COc1ccc(C(=O)c2ccn(-c3ccc(O)c(F)c3)c2)cc1 | 4.58 | 5.03 |  | 2.84 |  |
| O=C(c1ccccc1)c1ccn(-c2ccccc2O)c1 |  |  | 16.1% |  |  |
| O=C(c1ccc(-c2ccccc2)cc1)c1ccn(-c2ccc(O)c(F)c2)c1 |  |  | 14.2% |  |  |
| O=C(c1ccccc1)c1ccn(-c2ccc(O)cc2)c1 | < 4.00 | 4.26 |  | > 1.8 |  |
| O=C(c1ccccc1)c1ccn(-c2ccc(O)c(/C=N/O)c2)c1 |  |  | 35.3% |  |  |
| O=C(c1ccccc1)c1ccn(-c2ccc([N+](=O)[O-])c(/C=N/O)c2)c1 |  |  | 36.3% |  |  |
| COc1cccc(C(=O)c2ccn(-c3ccc(O)c(F)c3)c2)c1 | 4.54 | 5.17 |  | 4.25 |  |
| O=C(c1ccccc1)c1ccn(-c2ccc(/C=N/O)c([N+](=O)[O-])c2)c1 |  |  | 60.5% |  |  |
| O=C(c1ccc(OC(F)(F)F)cc1)c1ccn(-c2ccc(O)c(F)c2)c1 | < 4.00 | 4.38 |  | > 2.4 |  |

More lines, main results first:

| pIC50 [2] | pIC50 [3] | inhibition [4] | SMILES | Ratio IC50 (Rattus norvegicus) | further results |
| --- | --- | --- | --- | --- | --- |
| 4.42 | 5.00 |  | O=C(c1ccccc1)c1ccn(-c2ccc(O)c(F)c2)c1 | 3.79 |  |
|  |  | 43.7% | COc1ccc(C(=O)c2cccn2-c2ccc(O)c(F)c2)cc1 |  |  |
| < 4.00 | 4.22 |  | O=C(c1cccn1-c1ccc(O)c(F)c1)C(F)F | > 1.65 |  |
| < 4.00 | 4.13 |  | O=C(c1cccn1-c1ccc(O)c(F)c1)C(F)(F)F | > 1.36 |  |
|  |  | 37.2% | O=C(c1ccccc1)c1cccn1-c1ccc(O)c(F)c1 |  |  |
| 4.69 | 5.98 |  | O=C(c1ccccc1)c1cc(C(=O)C(F)(F)F)n(-c2ccc(O)c(F)c2)c1 | 19.6 | Activity [6]: 462.49 nmol/g; logD [7]: 3.3; logD [8]: 3.6; logD [9]: -0.38; logD [10]: 0.66; logD [11]: 2.48; logD [12]: 3.5; Activity [13]: 586.08 nmol/g; logD [14]: 3.86; logD [15]: 3.41 |
| 4.92 | 6.35 |  | O=C(c1ccccc1)c1cc(C(=O)C(F)F)n(-c2ccc(O)c(F)c2)c1 | 27.3 | Activity [6]: 396.89 nmol/g; logD [16]: 3.41; Papp (Jejunum [17]): 6.4 ucm/s; logD [8]: 2.98; logD [10]: 0.1; logD [11]: 1.72; Activity [13]: 487.07 nmol/g; logD [14]: 3.1; logD [15]: 2.62 |
| 4.45 | 4.60 |  | O=C(c1ccn(-c2ccc(O)c(F)c2)c1)c1ccc(Br)cc1F | 1.43 |  |
